Source: PMC10388362, “Fluorescent Ligands Enable Target Engagement Studies for the Intracellular Allosteric Binding Site of the Chemokine Receptor CXCR2” (Journal of Medicinal Chemistry, 2023)
Values joined by “and” are separate entries in the source; they are usually repeats but may differ in a detail not shown here. Identical values can stand only once.

Molecular target: T1, CXCR2 (Homo sapiens, UniProt P25025)
T1 construct: Promega pNLF1-C (Nluc) #CXCR20TN00; host or cells: HEK293T, transient transfection (PEI)
T1 sequence (P25025 1-360): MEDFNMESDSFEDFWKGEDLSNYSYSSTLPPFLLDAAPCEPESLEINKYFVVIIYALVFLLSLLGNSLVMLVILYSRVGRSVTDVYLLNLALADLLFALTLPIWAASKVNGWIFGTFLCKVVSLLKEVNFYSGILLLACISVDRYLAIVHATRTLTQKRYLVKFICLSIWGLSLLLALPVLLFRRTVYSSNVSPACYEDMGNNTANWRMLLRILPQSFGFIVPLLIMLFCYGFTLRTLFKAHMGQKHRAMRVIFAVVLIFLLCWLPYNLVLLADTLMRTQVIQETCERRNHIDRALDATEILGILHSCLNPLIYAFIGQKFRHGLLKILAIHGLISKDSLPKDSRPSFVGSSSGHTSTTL
Assay: Membrane-based NanoBRET association and dissociation kinetic assay
Type: binding
Description: 5 μL of a solution of the fluorescent ligand (9a) diluted to varying concentrations (final assay concentrations: 10–100 nM) in the assay buffer and 5 μL of the assay buffer were transferred to a 384-well plate. For the determination of nonspecific binding, we added a solution of a nonlabeled competitor dissolved in the assay buffer (3, final assay concentration: 10 μM) instead. After the addition of 5 μL of a furimazine solution (final assay dilution: 1:350 in assay buffer), plates were incubated for 3 min in the dark at ambient temperature. Subsequently, 20 μL of the membrane preparation (2 μg total protein/well) was added (final assay volume: 35 μL). BRET ratios were measured with a CLARIOstar microplate reader using 620/10 and 475/30 nm emission filters over time at ambient temperature or 37 °C. The obtained data were analyzed using the association kinetics (one ligand concentration) algorithm in PRISM9.5 (GraphPad) to determine association kinetics using a predetermined koff as a constraint.
5 μL of a solution of the fluorescent ligand (9a) diluted to varying concentrations (final assay concentrations: 10–100 nM) in the assay buffer and 5 μL of the assay buffer were transferred to a 384-well plate. In order to determine nonspecific binding, we added a solution of a nonlabeled competitor dissolved in the assay buffer (3, final assay concentration: 10 μM) instead of the 5 μL of the assay buffer. Then, 20 μL of the membrane preparation (2 μg total protein/well) was added, and plates were incubated for 4 h at ambient temperature in the dark. Subsequently, 5 μL of a vivazine solution (final assay dilution: 1:350 in assay buffer) was added. Plates were incubated for further 60 min in the dark at ambient temperature. Thereafter, 1 μL of a solution of a […] competitor dissolved in the assay buffer (3, final assay concentration: 10 μM) was added. For control experiments, we added 1 μL of the assay buffer instead of the competitor solution. BRET ratios were measured with a CLARIOstar microplate reader using 620/10 and 475/30 nm emission filters over time at ambient temperature or 37 °C. Specific BRET ratios were calculated as a difference of total and nonspecific binding. The obtained data were analyzed using the dissociation—one phase exponential decay algorithm in PRISM9.5 (GraphPad) to determine dissociation kinetics.

[1] = CXCR2_Nluc membranes, 37 °C, mean
[2] = CXCR2_Nluc membranes, room temperature, mean
[3] = membranes, 37 °C, 9a 10 nM, single determinations
[4] = membranes, 37 °C, 9a 10 nM, single determinations, koff fixed 0.00569 min-1
[5] = membranes, 37 °C, 9a 25 nM, single determinations
[6] = membranes, 37 °C, 9a 25 nM, single determinations, koff fixed 0.00569 min-1
[7] = membranes, 37 °C, 9a 50 nM, single determinations
[8] = membranes, 37 °C, 9a 50 nM, single determinations, koff fixed 0.00569 min-1
[9] = membranes, 37 °C, 9a 100 nM, single determinations
[10] = membranes, 37 °C, 9a 100 nM, single determinations, koff fixed 0.00569 min-1
[11] = membranes, room temperature, 9a 10 nM, single determinations
[12] = membranes, room temperature, 9a 25 nM, single determinations
[13] = membranes, room temperature, 9a 50 nM, single determinations
[14] = membranes, room temperature, 9a 100 nM, single determinations

Cc1ccc([C@H](Nc2c(Nc3cccc(C(=O)NCc4cn(CCOCCOCCOCCNC(=O)c5ccc(C(=O)[O-])c(-c6c7ccc(=[N+](C)C)cc-7oc7cc(N(C)C)ccc67)c5)nn4)c3O)c(=O)c2=O)C(C)(C)C)o1 [9a, (R)-4-((2-(2-(2-(2-(4-((3-((2-((2,2-Dimethyl-1-(5-methylfuran-2-yl)propyl)amino)-3,4-dioxocyclobut-1-en-1-yl)amino)-2-hydroxybenzamido)methyl)-1H-1,2,3-triazol-1-yl)ethoxy)ethoxy)ethoxy)ethyl)carbamoyl)-2-(6-(dimethylamino)-3-(dimethyliminio)-3H-xanthen-9-yl)benzoate]
koff [1]: 9.48e-05 s⁻¹
kon [1]: 32600 M⁻¹ s⁻¹
tR [1]: 178.8 min
Kd (CXCR2_Nluc membranes, cell-free, 37 °C): 2.91 ± 0.27 nM
Kd (CXCR2_Nluc membranes, room temperature): 1.94 ± 0.27 nM
koff [2]: 3.57e-05 s⁻¹
kon [2]: 18300 M⁻¹ s⁻¹
residence time tr [2]: 485.6 min
residence time (CXCR2_Nluc membranes, room temperature, mean, read-out: residence time tr): 486 ± 28 min
koff [3]: 8.83e-05 s⁻¹
koff [min-1] [3]: 0.00567 min⁻¹ and 0.00464 min⁻¹
tR [3]: 188.6 min and 176.4 min and 215.5 min
kon [4]: 42500 M⁻¹ s⁻¹
kon [M-1 min-1] [4]: 52685.82 M⁻¹ s⁻¹ and 46570.12 M⁻¹ s⁻¹
koff [5]: 0.000102 s⁻¹
koff [min-1] [5]: 0.00658 min⁻¹ and 0.00473 min⁻¹
tR [5]: 162.5 min and 152.0 min and 211.3 min
kon [6]: 29600 M⁻¹ s⁻¹
kon [M-1 min-1] [6]: 40515.73 M⁻¹ s⁻¹ and 31065.33 M⁻¹ s⁻¹
koff [7]: 9.33e-05 s⁻¹
koff [min-1] [7]: 0.0059 min⁻¹ and 0.00531 min⁻¹
tR [7]: 178.6 min and 169.4 min and 188.3 min
kon [8]: 26700 M⁻¹ s⁻¹
kon [M-1 min-1] [8]: 29466.47 M⁻¹ s⁻¹ and 24036.28 M⁻¹ s⁻¹
koff [9]: 0.000105 s⁻¹
koff [min-1] [9]: 0.00726 min⁻¹ and 0.00487 min⁻¹
tR [9]: 159.6 min and 137.7 min and 205.4 min
kon [10]: 23300 M⁻¹ s⁻¹
kon [M-1 min-1] [10]: 25508.45 M⁻¹ s⁻¹ and 19799.72 M⁻¹ s⁻¹
koff [11]: 3.12e-05 s⁻¹
koff [min-1] [11]: 0.00183 min⁻¹ and 0.00215 min⁻¹
tR [11]: 534.2 min and 545.6 min and 464.7 min
koff [12]: 2.9e-05 s⁻¹
koff [min-1] [12]: 0.00253 min⁻¹ and 0.00232 min⁻¹
tR [12]: 575.7 min and 394.8 min and 431.4 min
koff [13]: 2.68e-05 s⁻¹
koff [min-1] [13]: 0.00305 min⁻¹ and 0.00242 min⁻¹
tR [13]: 619.6 min and 328.4 min and 413.1 min
koff [14]: 2.58e-05 s⁻¹
koff [min-1] [14]: 0.00219 min⁻¹ and 0.00238 min⁻¹
tR [14]: 643.1 min and 457.0 min and 420.0 min
